This is an account of results in BindingDB's records for doi:10.7270/Q2S46QSD (D3R/Abbott, 2015).

Chain of Mitogen-activated protein kinase 1 (P28482 whole entry): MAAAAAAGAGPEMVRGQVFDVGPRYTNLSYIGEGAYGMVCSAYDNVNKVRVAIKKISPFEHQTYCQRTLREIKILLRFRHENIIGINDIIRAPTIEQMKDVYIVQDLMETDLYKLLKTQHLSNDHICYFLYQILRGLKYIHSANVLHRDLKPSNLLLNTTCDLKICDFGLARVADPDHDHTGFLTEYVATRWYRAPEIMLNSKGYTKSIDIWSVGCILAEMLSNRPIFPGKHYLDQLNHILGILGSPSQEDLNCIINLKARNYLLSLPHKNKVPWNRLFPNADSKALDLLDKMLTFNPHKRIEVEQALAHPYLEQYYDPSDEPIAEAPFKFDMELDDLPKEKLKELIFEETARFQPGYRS

The test has as its target Mitogen-activated protein kinase 1 (Homo sapiens, UniProt P28482). Put plainly: Photometric_Method2.
For the molecule `Cc1cnc(N[C@H]2CCCC[C@H]2O)nc1-c1c[nH]c(C(=O)N[C@H](CO)c2ccccc2)c1` [erk000465], the affinity, expressed as Ki, was 7.1 nM. `Cc1cnc(NN(C)C)nc1-c1c[nH]c(C(=O)N[C@H](CO)c2ccccc2)c1` [erk000505]: the Ki was 7.1 nM. In turn, `Cc1cnc(NCCc2ccccc2)nc1-c1c[nH]c(C(=O)N[C@H](CO)c2ccccc2)c1` [erk000578] showed a Ki of 7.1 nM. `Cc1cnc(NC2CCOCC2)nc1-c1c[nH]c(C(=O)N[C@H](CO)c2cccc(Cl)c2)c1` [erk000584] registered a Ki of 7.9 nM. For the molecule `Cc1ccc(Nc2ncc(C)c(-c3c[nH]c(C(=O)N[C@H](CO)c4cccc(Cl)c4)c3)n2)cc1` [erk000585], the affinity, expressed as Ki, was 7.1 nM. `Cc1cnc(Nc2cccc3c2OC(F)(F)O3)nc1-c1c[nH]c(C(=O)N[C@H](CO)c2ccccc2)c1` [erk000591]: the affinity, expressed as Ki, was 7.9 nM. Molecule `Cc1cccc([C@@H](CO)NC(=O)c2cc(-c3nc(Nc4cccc(F)c4C)ncc3C)c[nH]2)c1` [erk000601] gave a Ki of 7.9 nM. Regarding `Cc1cnc(N[C@H]2CCC[C@H]2O)nc1-c1c[nH]c(C(=O)N[C@H](CO)c2cccc(Cl)c2)c1` [erk000612], the affinity corresponds to a Ki of 7.1 nM. As to `Cc1cnc(NN2CCCC2)nc1-c1c[nH]c(C(=O)N[C@H](CO)c2cccc(Cl)c2)c1` [erk000624], the Ki is 7.1 nM. `Cc1cnc(Nc2ccc(Cl)cc2Cl)nc1-c1c[nH]c(C(=O)N[C@H](CO)c2ccccc2)c1` [erk000657] had a Ki of 7.9 nM. The value for `Cc1cnc(N[C@@H](CO)CC(F)(F)F)nc1-c1c[nH]c(C(=O)N[C@H](CO)c2cccc(Cl)c2)c1` [erk000675] was 7.9 nM; that for `CCOC(=O)N1CCC(Nc2ncc(Cl)c(-c3c[nH]c(C(=O)N[C@H](CO)c4cccc(Cl)c4)c3)n2)CC1` [erk000703] was 7.1 nM.
